# Patent US11141496B2, “Use of berberine or derivative thereof in preparing myocardial perfusion imaging agent” (WEST CHINA HOSPITAL, SICHUAN UNIVERSITY, priority 2017, dated 2021)
# Columns and labels:
# [1] = tested on: mitochondria of SD neonatal rat primary cardiomyocytes; assay: [^19F]HX-01 localization with red mitochondrial probe M7513 in primary cardiomyocytes; type: cell-based; conditions: 4 μM, 10 min, cardiomyocytes and surrounding mixed cells
# Method: The suspension of primary myocardial cells of SD suckling mice was adjusted to the concentration of 20×10^4/ml, inoculated in a six-well plate, with 2 ml for each well, and then incubated at 37° C. in 5% CO2 under saturated humidity for 24 h. After adherence, the DMEM high glucose medium in each well was aspirated and discarded, and DMEM high glucose medium containing different concentrations of [^19F]HX-01 (6.25, 12.5, 25, 50, 100, 150, and 200 μM) was firstly added, with 2 ml for each well, and each concentration has three replicate wells. After incubation at 37° C. in 5% CO2 under saturated humidity for 1 h, the liquid in each well was aspirated and removed. […] After the wells were washed three times with PBS, the cells were finally observed under a confocal fluorescence microscope with an excitation wavelength of 488 nm.
# In order to further clarify the localization characteristics of [^19F]HX-01 in the subcellular organelles of SD rat primary cardiomyocytes, after addition of above different concentrations of [^19F]HX-01 and incubation for 1 h, the medium was discarded, and each well was rinsed with PBS three times. Each well was added the medium containing mitochondrial specific probe with red fluorescence (Mito Tracker Red (M7513), Thermo fisher) and incubated for another 10 min, the medium was removed, and each well was rinsed with PBS three times. […]
# [2] = Competitive inhibition test of [^18F]HX-01 and non-radioactive standard [^19F]HX-01 (PET); type: in vivo, New Zealand white rabbit; conditions: [^19F]HX-01 1 nmol/kg i.v. 30 min before tracer
# Method: After anesthesia and fixation, the male New Zealand white rabbits were set as their own control (n=3). On the first day, 2 ml saline was injected into the ear marginal vein of the rabbits. Then, the tracer [^18F]HX-01 was injected, and the dosage was 0.5 mci/kg, and PET scanning was performed immediately as described in 1.4.2. On the second day, non-radioactive standard [^19F]HX-01 was injected through ear edge vein, and the dose of standard substance was 1 nmol/kg, that was dissolved in 2 ml normal saline. 30 min After injection of non-radioactive standard [^19F]HX-01, the tracer [^18F]HX-01 was injected, and the injection doe was 0.5 mCi/kg. After the injection, PET dynamic scanning was performed as described in 1.4.2. […] Using Compassview 5.0 to analyze and process the data, the brain, heart, liver, lung, kidney, bone and muscle of the region of interest (ROI) were drawn on the horizontal axis, and SUVmax was recorded.
# [3] = SD rat myocardial infarction model, 350 μCi/rat, up to 120 min
# mouse fibroblasts NIH3T3 = assay: [^18F]HX-01 uptake in NIH3T3 cells, with and without CCCP (γ counter); type: cell-based
# Method: (§1) As described in method 1.4.4, the suspension of rat cardiomyocytes H9C2, NIH3T3 cells and SD neonatal rat primary cardiomyocytes was adjusted to the concentration of 20×10^4/ml, inoculated in a six-well plate, with 2 ml for each well (containing 4×10^5 cells), and the experimental group and CCCP inhibition group were included, The plate was cultured at 37° C. in 5% CO2 under saturated humidity for 24 h. After the cells adhered, 30 minutes before addition of [^18F]HX-01, the DMEM high-glucose medium in the Petri dish was aspirated and discarded. DMEM high-glucose medium containing CCCP (0.5 μM) was firstly added at 2 ml/well to the cell culture dish in CCCP inhibition group, while an equal volume of DMEM high-glucose medium without CCCP was added to the cell culture dish in the experimental groups, and the dish was incubated at 37° C. in 5% CO2 under saturated humidity for 30 min. Then, 100 μl solution of [^18F]HX-01 dissolved in saline was added to each well at a dose of 2.5 μCi. The plate was incubated at 37° C. in 5% CO2 under saturation humidity. After incubation for 5 min, 10 min, 30 min, 60 min and 120 min, the liquid in the well was collected, and rinsed 3 times with PBS, and all the rinse liquid was collected in the radioimmunotubes. After digestion with 0.25% trypsin, all cells were collected in the radioimmunotubes, and the radioactivity counts of the liquid and cells in the wells were measured with a γ counter, and the data were recorded. Three replicate holes were set for each time point.
# [4] = rabbit, in vivo
# rat cardiomyocytes H9C2 = assay: [^18F]HX-01 uptake in H9C2 cells, with and without CCCP (γ counter); type: cell-based
# Method: as §1, with “After incubation for 5 min, 10 min, 30 min, 60 min and 120 min, the liquid in the well was collected, and rinsed 3 times with PBS, and all the rinse liquid was collected in the radioimmunotubes.” left out, “Three replicate holes were set for each time point.” left out
# [5] = tested on: SD neonatal rat primary cardiomyocytes; assay: [^18F]HX-01 uptake in SD neonatal rat primary cardiomyocytes, with and without CCCP (γ counter); type: cell-based
# Method: as §1
SMILES,distribution of red fluorescence of the probe [1],"kidney uptake (SUVmax), inhibition group vs control group [2]","liver uptake (SUVmax), inhibition group vs control group [2]","myocardial uptake (SUVmax), inhibition group vs control group ([2]; P<0.001)","lung, bone, muscle and brain uptake (SUVmax), inhibition group vs control group ([2]; P>0.05)",Micro PET image of anterior wall of left ventricle near apical area (infarction) [3],uptake percentage (mouse fibroblasts NIH3T3; 5 min),uptake percentage (mouse fibroblasts NIH3T3; 120 min),"uptake, normal group vs CCCP inhibition group (mouse fibroblasts NIH3T3; CCCP 0.5 μM, p>0.05)",SUVmax ratio of heart/lung [4],SUVmax ratio of heart/muscle [4],"uptake in other tissues such as brain, lung, muscle and bone [4]","uptake percentage (peak value) (rat cardiomyocytes H9C2; 120 min, 2.5 μCi per well)","uptake percentage, control group vs CCCP inhibition group (rat cardiomyocytes H9C2; CCCP 0.5 μM 30 min before tracer)",uptake percentage ([5]; 30 min),uptake percentage (peak value) ([5]; 120 min),"intake percentage, normal group vs CCCP inhibition group ([5]; CCCP 0.5 μM, p>0.05)"
ClCc1ccc(C2=c3cc4c5c(c3Oc3c2cc2c6c3CCCN6CCC2)CCC[N+]=5CCC4)cc1.[Cl-] [M7513],appeared in the mitochondria of all cells in a granular distribution,,,,,,,,,,,,,,,,
COc1c(OCCC[18F])ccc2cc3[n+](cc12)CCc1cc2c(cc1-3)OCO2.[Cl-] [[^18F]HX-01],,no statistical significance between the two groups,no statistical significance between the inhibition group and the control group,SUVmax value was obviously reduced,not statistically significant,showed a fixed radioactive defect,0.78±0.06,0.91±0.01,did not show a significant difference,greater than 10,greater than 10,extremely low,2.89%±0.11%,didn't show significant difference in the uptake percentage,2.08%±0.13%,2.41%±0.03%,no significant difference in the intake percentage
